Source: patent publication US20220235068A1, “TETRACYCLIC COMPOUNDS AS CDC7 INHIBITORS” (Chia Tai Tianqing Pharmaceutical Group Co., Ltd., priority 2019, published 2022)
Where a name gives a salt, the structure may show the parent alone. Read-outs that look alike come from different tables or passages of the source. Values belong to the compound of their own block, whether it stands above or below them.

How the values were obtained:
Cdc7/DBF4 = molecular target: T1, Cdc7/DBF4 (Homo sapiens, UniProt O00311); test: Inhibitory effect against activity of Cdc7/DBF4 (ADP-Glo kinase detection kit); type: biochemical; conditions: 10 μM ATP, 25° C., 60 min
T1 construct: purchased Promega
T1 sequence (O00311 whole entry): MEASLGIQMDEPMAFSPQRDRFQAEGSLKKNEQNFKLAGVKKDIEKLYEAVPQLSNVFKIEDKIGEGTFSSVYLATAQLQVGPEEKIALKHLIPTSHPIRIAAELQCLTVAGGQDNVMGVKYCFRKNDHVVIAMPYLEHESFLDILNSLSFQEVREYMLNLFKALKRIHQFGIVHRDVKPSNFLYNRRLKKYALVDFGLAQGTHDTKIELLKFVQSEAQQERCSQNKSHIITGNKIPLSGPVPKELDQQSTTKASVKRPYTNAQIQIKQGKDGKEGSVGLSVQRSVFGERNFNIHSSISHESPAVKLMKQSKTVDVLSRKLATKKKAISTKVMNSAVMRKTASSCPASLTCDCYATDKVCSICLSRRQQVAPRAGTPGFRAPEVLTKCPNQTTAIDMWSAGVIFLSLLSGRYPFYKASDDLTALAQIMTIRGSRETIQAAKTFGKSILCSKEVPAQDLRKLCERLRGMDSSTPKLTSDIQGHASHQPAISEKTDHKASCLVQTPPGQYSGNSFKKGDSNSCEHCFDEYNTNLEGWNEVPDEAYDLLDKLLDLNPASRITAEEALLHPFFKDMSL
T1 sequence (Q9UBU7 whole entry partner): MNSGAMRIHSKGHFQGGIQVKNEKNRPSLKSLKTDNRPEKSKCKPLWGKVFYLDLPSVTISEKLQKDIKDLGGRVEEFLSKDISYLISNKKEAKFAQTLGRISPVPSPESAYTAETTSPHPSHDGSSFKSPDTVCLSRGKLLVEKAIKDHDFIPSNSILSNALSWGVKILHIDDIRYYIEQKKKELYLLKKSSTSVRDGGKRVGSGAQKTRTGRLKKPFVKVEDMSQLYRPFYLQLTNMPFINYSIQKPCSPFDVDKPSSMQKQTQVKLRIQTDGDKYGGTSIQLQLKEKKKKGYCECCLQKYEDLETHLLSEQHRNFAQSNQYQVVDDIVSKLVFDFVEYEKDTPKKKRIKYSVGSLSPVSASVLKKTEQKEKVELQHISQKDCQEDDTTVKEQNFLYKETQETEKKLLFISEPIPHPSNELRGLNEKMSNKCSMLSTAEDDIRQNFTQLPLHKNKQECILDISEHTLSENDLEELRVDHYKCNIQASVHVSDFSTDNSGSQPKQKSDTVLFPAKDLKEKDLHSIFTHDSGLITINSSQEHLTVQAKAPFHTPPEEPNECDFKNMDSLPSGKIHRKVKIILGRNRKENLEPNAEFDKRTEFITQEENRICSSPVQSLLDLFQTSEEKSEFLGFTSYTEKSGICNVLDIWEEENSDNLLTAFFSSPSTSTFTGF
Experimental: Cdc7/DBF4 kinase detection kit purchased from Promega; and
(§1) Nivo multi-marker analyzer (PerkinElmer).
An enzyme, a substrate, adenosine triphosphate and an inhibitor were diluted with the kinase buffer in the kit. A test compound was serially 5-fold diluted to an 8th concentration, i.e., from 10 μM to 0.13 nM, with the DMSO concentration being 5%, and the duplicate well experiment was set up. To a microplate were added 1 μL of inhibitors of various concentration gradients, 2 μL of CDCl7/DBF4 kinase (6.25 ng), 2 μL of a mixture of substrate and ATP (10 μM adenosine triphosphate, 0.2 μg/μL substrate), and the final concentration gradient of the compound was diluted from 2 μM to 0.025 nM. The reaction system was left reacting at 25° C. for 60 min. After the reaction was completed, 5 μL of ADP-Glo reagent was added to each well, and the reaction was continued at 25° C. for 40 min. After the reaction was completed, 10 μL of the kinase detection reagent was added to each well. After 30 min of reaction at 25° C., the chemiluminescence was read using the multi-marker analyzer with an integration time of 0.5 s.
The original data were converted to inhibition using the equation (Sample−Min)/(Max−Min)×100%, and the IC50 value was then curve fitted using four parameters (obtained from the “log(inhibitor) vs. response-Variableslope” model in GraphPadPrism). Table 1 provides the enzymatic inhibitory activity of the compounds disclosed herein against Cdc7/DBF4.

Colo205 cells = test: Inhibitory effect against Colo205 cell proliferation (CellTiter-Glo); type: cell-based; conditions: incubation 3 days
Experimental: 1640 medium; fetal bovine serum; penicillin/streptomycin antibiotics purchased from Wisent;
CellTiter-Glo (chemiluminescence detection reagent for cell viability) reagent purchased from Promega;
COL0205 cell line purchased from Wuhan Procell Life Science&Technology Co., Ltd; and
as §1
COL0205 cells were plated on to white 96-well plates by adding 80 μL of cell suspension (containing 3000 COL0205 cells) to each well. The cell plate was incubated in a CO2 incubator overnight.
A test compound was serially 3-fold diluted to an 8th concentration, i.e., from 2 mM to 920 nM, and the duplicate well experiment was set up. 78 μL of medium was added to an intermediate plate, 2 μL of the serially diluted compound was transferred to corresponding wells of the intermediate plate, and after mixing, the mixture was transferred to the cell plate at 20 μL per well. The concentration of the compound transferred to the cell plate ranged from 10 μM to 4.57 nM. The cell plate was incubated in a CO2 incubator for 3 days. Another cell plate was provided for reading signal values on the day of compound addition and these values were used as […] in data analysis. The chemiluminescence detection reagent for cell viability was added to this cell plate at 25 μL per well and the luminescence signals were stabilized by incubation at room temperature for 10 min. Readings were taken using the multi-marker analyzer. The chemiluminescence detection reagent for cell viability was added to the cell plate at 25 μL per well and the luminescence signals were stabilized by incubation at room temperature for 10 min. Readings were taken using the multi-marker analyzer.
The original data were converted to inhibition using the equation (Sample−Min)/(Max−Min)×100%, and the IC50 value was then curve fitted using four parameters (obtained from the “log(inhibitor) vs. response-Variableslope” model in GraphPadPrism). Table 2 provides the inhibitory activity of the compounds disclosed herein against COL0205 cell proliferation.

[1] = Single-dose pharmacokinetic study in mice; type: in vivo; conditions: male CD-1 mice
Experimental: To evaluate the pharmacokinetic behavior by using male CD-1 mice as test animals and determining the drug concentrations of the compounds in the plasma after single-dose administration. Healthy adult male CD-1 mice were selected for intragastric administration. A compound was mixed with an appropriate amount of 5% DMSO/95% (10% hydroxypropyl-β-cyclodextrin), vortexed and sonicated to prepare a 1 mg/mL clear solution for later use. After the mice were administered intravenously at 2 mg/kg and orally at 10 mg/kg, whole blood was collected at certain time points, and plasma was separated. After pretreatment of the samples, the drug concentration was measured by LC-MS/MS, and pharmacokinetic parameters were calculated using Phoenix WinNonlin software.

[2] = tested on: human colorectal cancer cell SW620; test: In vivo pharmacodynamic study in subcutaneous xenograft tumor nude mouse model of SW620; conditions: BID, p.o.
Experimental: Human colorectal cancer cell SW620 cells of the 7th passage were cultured in an L-15 medium containing 10% fetal bovine serum, 100 U/mL penicillin and 100 μg/mL streptomycin through in vitro monolayer culture in an incubator at 37° C./[…] for 4 passages with conventional medium replacement. At a cell saturation of 80-90%, the cells were digested with pancreatin-EDTA, counted and resuspended in PBS at a density of 5×10^6 cells/100 μL.
Cell inoculation: Each mouse was inoculated on the right cervical dorsum with 0.1 mL of the cell suspension of 5×10^6 SW620 cells in PBS. At an average tumor volume up to about 134 mm^3, the mice were randomly grouped and administrated.
Tumor diameters were measured twice weekly using a vernier caliper. The tumor volume was calculated using the following formula: V=0.5 a×b^2, where a and b represent the long diameter and short diameter of the tumor, respectively.
The anti-tumor therapeutic effect of the compound was evaluated by TGI (%) or relative tumor proliferation rate T/C (%). Relative tumor proliferation rate T/C (%)=TRTV/CRTV×100% (TRTV: RTV of treatment group; CRTV: RTV of negative control group). Relative tumor volumes (RTVs) were calculated from the tumor measurement results using the following formula: RTV=Vt/VO, where VO is the average tumor volume measured at the time of grouping (i.e., DO), Vt is the average tumor volume measured at a certain measurement, and TRTV and CRTV are taken from the data measured on the same day.
TGI (%), reflects the tumor growth inhibition rate. TGI (%)=[(1−(average tumor volume at the end of administration in a treatment group−average tumor volume at the start of administration of the treatment group))/(average tumor volume at the end of treatment of the vehicle control group−average tumor volume at the start of treatment of the vehicle control group)]×100%.
After day 22 of the grouping, mice were euthanized, plasma and tumors were sampled and tumors were weighed and photographed.

[3] = mouse, plasma, IV: 2 mg/kg, PO: 10 mg/kg

SMILES: CN1CCCC1c1nc2c3c(sc2c(=O)[nH]1)-c1c[nH]nc1CCC3 (single isomer, unassigned) [Compound 3-2 hydrochloride]
- IC50 (Cdc7/DBF4): 0.42 nM

SMILES: CN1CCC(C)(c2nc3c4c(sc3c(=O)[nH]2)-c2c[nH]nc2CCC4)CC1 [Compound 13 hydrochloride]
- IC50 (Cdc7/DBF4): 5.66 nM

SMILES: CN1CCCC1(C)c1nc2c3c(sc2c(=O)[nH]1)-c1c[nH]nc1CCC3 (single isomer, unassigned) [Compound 5-1 hydrochloride]
- IC50 (Cdc7/DBF4): 2.04 nM

SMILES: CC1(c2nc3c4c(sc3c(=O)[nH]2)-c2c[nH]nc2CCC4)CCNCC1 [Compound 12 hydrochloride]
- IC50 (Cdc7/DBF4): 1.38 nM

SMILES: O=c1[nH]c([C@H]2CC3CCN2CC3)nc2c3c(sc12)-c1c[nH]nc1CCC3 (single isomer, unassigned) [Compound 1-1 hydrochloride]
- IC50 (Cdc7/DBF4): 3.02 nM
- IC50 (Colo205 cells): 13.8 nM
- Maximum concentration ([1]; IV: 2 mg/kg, PO: 10 mg/kg): 2230 nM
- AUC(0-t) ([1]; mouse, plasma, IV 2 mg/kg, read-out: AUC0-last (intravenous injection)): 2.45 µM·h
- bioavailability [1, 3]: 71.4%
- clearance [1, 3]: 35.2 mL/min/kg
- half-life [1, 3]: 4.03 h
- Vd ([1]; mouse, plasma, IV: 2 mg/kg, PO: 10 mg/kg, read-out: Apparent volume of distribution): 4.13 L/kg
- AUC(0-t) ([1]; mouse, plasma, PO 10 mg/kg, read-out: AUC0-last (oral)): 9.08 µM·h
- Tumor volume (Day 1) ([2]; 2.5 mg/kg): 134 ± 13 mm^3
- RTV (Day 21) ([2]; 2.5 mg/kg): 1.88
- T/C (%) (Day 21) ([2]; 2.5 mg/kg): 22%
- TGI (%) (Day 21) ([2]; 2.5 mg/kg): 89%
- Tumor volume (Day 21) ([2]; 2.5 mg/kg): 237 ± 27 mm^3
- Tumor volume (Day 1) ([2]; 5 mg/kg): 134 ± 15 mm^3
- RTV (Day 21) ([2]; 5 mg/kg): 0.93
- T/C (%) (Day 21) ([2]; 5 mg/kg): 11%
- TGI (%) (Day 21) ([2]; 5 mg/kg): 100%
- Tumor volume (Day 21) ([2]; 5 mg/kg): 133 ± 32 mm^3
- Tumor volume (Day 1) ([2]; 7.5 mg/kg): 134 ± 14 mm^3
- RTV (Day 21) ([2]; 7.5 mg/kg): 0.31
- T/C (%) (Day 21) ([2]; 7.5 mg/kg): 4%
- TGI (%) (Day 21) ([2]; 7.5 mg/kg): 108%
- Tumor volume (Day 21) ([2]; 7.5 mg/kg): 53 ± 16 mm^3

SMILES: CN1CCCC1(C)c1nc2c3c(sc2c(=O)[nH]1)-c1c[nH]nc1CCC3 (single isomer, unassigned) [Compound 5-2 hydrochloride]
- IC50 (Cdc7/DBF4): 2.35 nM

SMILES: O=c1[nH]c(C2CCNCC2)nc2c3c(sc12)-c1c[nH]nc1CCC3 [Compound 10 hydrochloride]
- IC50 (Cdc7/DBF4): 1.69 nM

SMILES: O=c1[nH]c(C2CCCNC2)nc2c3c(sc12)-c1c[nH]nc1CCC3 (single isomer, unassigned) [Compound 8-1 hydrochloride]
- IC50 (Cdc7/DBF4): 4.27 nM

SMILES: O=c1[nH]c(C2C3CCN2CC3)nc2c3c(sc12)-c1c[nH]nc1CCC3 (single isomer, unassigned) [Compound 14-2 hydrochloride]
- IC50 (Cdc7/DBF4): 1.43 nM

SMILES: O=c1[nH]c(C2CCCN2)nc2c3c(sc12)-c1c[nH]nc1CCC3 (single isomer, unassigned) [Compound 2-2 hydrochloride]
- IC50 (Cdc7/DBF4): 1.52 nM

SMILES: Cc1n[nH]cc1-c1cc2nc([C@@H]3CC4CCN3CC4)[nH]c(=O)c2s1 [TAK-931, reference compound]
- Tumor volume (Day 1) ([2]; 40 mg/kg): 134 ± 13 mm^3
- RTV (Day 21) ([2]; 40 mg/kg): 1.36
- T/C (%) (Day 21) ([2]; 40 mg/kg): 16%
- TGI (%) (Day 21) ([2]; 40 mg/kg): 96%
- Tumor volume (Day 21) ([2]; 40 mg/kg): 176 ± 27 mm^3

SMILES: O=c1[nH]c(C2CCCN2)nc2c3c(sc12)-c1c[nH]nc1CCC3 (single isomer, unassigned) [Compound 2-1 hydrochloride]
- IC50 (Cdc7/DBF4): 3.73 nM

SMILES: CC1(c2nc3c4c(sc3c(=O)[nH]2)-c2c[nH]nc2CCC4)CCCN1 (single isomer, unassigned) [Compound 4-2 hydrochloride]
- IC50 (Cdc7/DBF4): 6.73 nM

SMILES: O=c1[nH]c(C2C3CCN2CC3)nc2c3c(sc12)-c1c[nH]nc1CCC3 (single isomer, unassigned) [Compound 14-1 hydrochloride]
- IC50 (Cdc7/DBF4): 1.21 nM
- IC50 (Colo205 cells; Homo sapiens, COLO 205, 72 h): 50.1 nM

SMILES: CC(C)N1CCCC1c1nc2c3c(sc2c(=O)[nH]1)-c1c[nH]nc1CCC3 (single isomer, unassigned) [Compound 6-1 hydrochloride]
- IC50 (Cdc7/DBF4): 1.7 nM

SMILES: CN1CCCC(c2nc3c4c(sc3c(=O)[nH]2)-c2c[nH]nc2CCC4)C1 (single isomer, unassigned) [Compound 9-1 hydrochloride]
- IC50 (Cdc7/DBF4): 4.85 nM

SMILES: O=c1[nH]c([C@H]2CC3CCN2CC3)nc2c3c(sc12)-c1c[nH]nc1CCC3 (single isomer, unassigned) [Compound 1-2 hydrochloride]
- IC50 (Cdc7/DBF4): 1.29 nM
- IC50 (Colo205 cells): 53.6 nM

Continued by falling IC50 (Cdc7/DBF4), values first:

- IC50 (Cdc7/DBF4): 4.85 nM
SMILES: CN1CCC(c2nc3c4c(sc3c(=O)[nH]2)-c2c[nH]nc2CCC4)CC1 [Compound 11 hydrochloride]

- IC50 (Cdc7/DBF4): 4.56 nM
SMILES: CC1(c2nc3c4c(sc3c(=O)[nH]2)-c2c[nH]nc2CCC4)CCCN1 (single isomer, unassigned) [Compound 4-1 hydrochloride]

- IC50 (Cdc7/DBF4): 3.07 nM
SMILES: CN1CCCCC1c1nc2c3c(sc2c(=O)[nH]1)-c1c[nH]nc1CCC3 (single isomer, unassigned) [Compound 7-1 formate]

- IC50 (Cdc7/DBF4): 2.7 nM
SMILES: CN1CCCCC1c1nc2c3c(sc2c(=O)[nH]1)-c1c[nH]nc1CCC3 (single isomer, unassigned) [Compound 7-2 formate]

- IC50 (Cdc7/DBF4): 1.19 nM
SMILES: CN1CCCC1c1nc2c3c(sc2c(=O)[nH]1)-c1c[nH]nc1CCC3 (single isomer, unassigned) [Compound 3-1 hydrochloride]

- IC50 (Cdc7/DBF4): 1.17 nM
SMILES: O=c1[nH]c(C2CCCNC2)nc2c3c(sc12)-c1c[nH]nc1CCC3 (single isomer, unassigned) [Compound 8-2 hydrochloride]

- IC50 (Cdc7/DBF4): 1.09 nM
SMILES: CN1CCCC(c2nc3c4c(sc3c(=O)[nH]2)-c2c[nH]nc2CCC4)C1 (single isomer, unassigned) [Compound 9-2 hydrochloride]

- IC50 (Cdc7/DBF4): 0.99 nM
SMILES: CC(C)N1CCCC1c1nc2c3c(sc2c(=O)[nH]1)-c1c[nH]nc1CCC3 (single isomer, unassigned) [Compound 6-2 hydrochloride]
